Legend:
Format in all cases: binding
HsAFP1 [1] = biological target: T1, HsAFP1 (Heuchera sanguinea, UniProt P0C8Y5); assay: DSC of lipid vesicles (lipid phase transition); settings: PC/PG/PA 75/15/10 vesicles, 0.5 mM; 40 uM HsAFP1; HEPES pH 7, low salt
T1 construct: mature plant defensin, recombinantly produced in Pichia pastoris and purified

HsAFP1 [2] = biological target: T1, HsAFP1; assay: rELISA, immobilised lipid; settings: 12.5 uM HsAFP1; pH 7.4; 37 C
HsAFP1 [3] = biological target: T2, HsAFP1 (Heuchera sanguinea, UniProt P0C8Y5, H32A/R52A); assay: rELISA, immobilised lipid; settings: 12.5 uM peptide; PBS-based blocking buffer pH 7.4; 37 C
T2 construct: mature plant defensin, recombinantly produced in Pichia pastoris and purified
T2 sequence (P0C8Y5 whole entry H32A/R52A): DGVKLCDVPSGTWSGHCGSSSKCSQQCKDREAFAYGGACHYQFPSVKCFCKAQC

T1 sequence (P0C8Y5 whole entry): as the sequence (P0C8Y5 whole entry H32A/R52A) above, with A32H, A52R counted along it

Compound: CCCCCCCCCCCCCC(=O)OC[C@H](COP(=O)(O)O)OC(=O)CCCCCCCCCCCCC [dimyristoylphosphatidic acid]
- DSC of lipid vesicles (lipid phase transition) (HsAFP1 [1]): HsAFP1 specifically interacted with vesicles containing PA

Compound: methyl-PA
- % reduction of binding vs PA (HsAFP1 [2]): > 75%

Compound: phosphatidic acid
- % reduction of binding vs native HsAFP1 (HsAFP1 [3]): 77%

Reference: publication PMC5702387, “The Antifungal Plant Defensin HsAFP1 Is a Phosphatidic Acid-Interacting Peptide Inducing Membrane Permeabilization” (Frontiers in Microbiology, 2017)
